Test results taken from US9492468B2, “Methods and compositions for treatment of acute heart failure” (PERICOR THERAPEUTICS, INC., priority 2008, dated 2016).
Structures can show the parent of a compound that is named as a salt.

Test system: dogs with advanced heart failure
Test: Single-dose 6 hours infusion study, hemodynamic, ventriculographic, echocardiographic, MVO2 and P-V loop measures
Assay type: in vivo, dog
Experimental: Studies were performed in purpose-bred, healthy and conditioned mongrel dogs weighing between 20 and 30 kg. The study was approved by Henry Ford Health System Institutional Animal Care and Use Committee and conformed to the National Institute of Health “Guide and Care for Use of Laboratory Animals” and the “Position of the American Heart Association on Research Animal Use” (Position of the American Heart Association on Research Animal Use. Circulation 1985; 71; 49A-50A).
Chronic LV dysfunction and failure was produced by multiple sequential intracoronary embolizations with polystyrene Latex; coronary microembolizations were performed during cardiac catheterization under general anesthesia and sterile conditions (Sabbah H N, et al. Am J Physiol (1991) 260:H1379-84; Sabbah H N, et al. Circulation (1994) 89:2852-9; Sabbah H N, et al. Am J Cardiol 99:41 A-46A, (2007)). Anesthesia was induced using a combination of intravenous injections of oxymorphone hydrochloride (0.22 mg/kg) and diazepam (0.2-0.6 mg/kg). Plane of anesthesia was maintained throughout the study using 1% to 2% isoflurane. Left and right heart catheterizations were performed via a femoral arteriotomy and venotomy. Coronary microembolizations were discontinued when LV ejection fraction, determined angiographically, was about 25%. A period of 2 weeks was allowed after the last microembolization to ensure that infarctions produced by the last microembolizations have completely healed and heart failure was established before the study is undertaken.
Six heart failure dogs described in Example 1 were used. Studies using active drug and placebo were performed in each dog in random order a minimum of one week apart. After baseline hemodynamic, angiographic and echocardiographic measurements, GP-531 tartrate or placebo was administered as a continuous constant intravenous infusion for 6 hours. The dose of GP-531 tartrate was 10 μg/kg/min. Complete hemodynamic, angiographic and echocardiographic measurements were made during baseline, and at 1, 2, 3, 4, 5 and 6 hours after initiating drug infusion. In addition, myocardial oxygen consumption (MVO2) was measured at baseline and 4 and 6 hours after initiating drug or saline infusion. LV pressure-volume relationships (P-V Loops) were also measured at baseline and at 6 hours after initiating drug or saline infusion to assess load independent contractility and relaxation. Venous blood samples were obtained at baseline and hourly thereafter. Blood samples (at least […]) were centrifuged at 3000 rpm for 10 minutes and plasma withdrawn and placed in cryostorage tubes and stored upright at −20° C. until needed. Venous blood samples were used to evaluate plasma levels of troponin-I and plasma levels of n-terminal pro-brain natriuretic peptide (NT-proBNP).
Study Primary End-Points were: (1) change in LV ejection fraction determined from ventriculography; (2) change in LV end-systolic and end-diastolic volume determined from ventriculography; (3) change in MVO2; and (4) change in the slope of the LV end-systolic and end-diastolic P-V relationship.
All hemodynamic measurements were made during left and right heart catheterizations in anesthetized dogs at each specified study time point. Heart rate (HR), mean aortic pressure (mAoP), LV end-diastolic pressure (LVEDP), stroke volume (SV), cardiac output (CO) and systemic vascular resistance (SVR) were measured at each study time point. Left ventriculograms were performed during cardiac catheterization after completion of the hemodynamic measurements. Left ventriculograms were obtained with the dog placed on its right side and digitally recorded during the injection of 20 ml of contrast material (RENO-M-60 Squibb, Princeton, N.J.). Correction for image magnification was made using a radiopaque grid placed at the level of the LV. […]

[1] = HF dogs n=6, iv 10 μg/kg/min constant infusion, 1 h
[2] = HF dogs n=6, iv 10 μg/kg/min constant infusion, 2 h
[3] = HF dogs n=6, iv 10 μg/kg/min constant infusion, 3 h
[4] = HF dogs n=6, iv 10 μg/kg/min constant infusion, 4 h
[5] = HF dogs n=6, iv 10 μg/kg/min constant infusion, 5 h
[6] = HF dogs n=6, iv 10 μg/kg/min constant infusion, 6 h
[7] = HF dogs n=6, iv 10 μg/kg/min for 6 h
[8] = HF dogs n=6, iv 10 μg/kg/min for 6 h, time-dependent
[9] = HF dogs n=6, iv 10 μg/kg/min for 6 h, vs baseline

NC(=O)c1ncn(C2OC(CNCc3ccccc3)C(O)C2O)c1N (centres unmarked) [GP-531 tartrate]
Cardiac output (CO) [1]: 1.42 ± 0.08 L/min | Deceleration time of early mitral inflow velocity (DCT) [1]: 100 ± 5 ms | Ei/Ai (ratio of mitral inflow time-velocity integrals) [1]: 1.78 ± 0.23 | Heart rate (HR) [1]: 78 ± 1 beats/min | LV end-diastolic circumferential wall stress (EDWS) [1]: 53 ± 7 gm/cm^2 | LV end-diastolic pressure (LVEDP) [1]: 12 ± 1.1 mmHg | LV end-diastolic volume (EDV) [1]: 64 ± 2 mL | LV end-systolic volume (ESV) [1]: 46 ± 2 mL | LV fractional area of shortening (FAS) [1]: 26 ± 0.8% | Mean aortic pressure (mAoP) [1]: 77 ± 3 mmHg | PE/PA (ratio of peak mitral flow velocities) [1]: 1.7 ± 0.10 | Stroke volume (SV) [1]: 18 ± 1.0 mL | Systemic vascular resistance (SVR) [1]: 4368 ± 248 dynes-sec-cm^−5 | Cardiac output (CO) [2]: 1.47 ± 0.11 L/min | Deceleration time of early mitral inflow velocity (DCT) [2]: 109 ± 4 ms | Ei/Ai (ratio of mitral inflow time-velocity integrals) [2]: 2.03 ± 0.23 | Heart rate (HR) [2]: 78 ± 2 beats/min | LV end-diastolic circumferential wall stress (EDWS) [2]: 47 ± 5 gm/cm^2 | LV end-diastolic pressure (LVEDP) [2]: 12 ± 0.9 mmHg | LV end-diastolic volume (EDV) [2]: 63 ± 2 mL | LV end-systolic volume (ESV) [2]: 44 ± 2 mL | LV fractional area of shortening (FAS) [2]: 27 ± 1.3 % | Mean aortic pressure (mAoP) [2]: 77 ± 3 mmHg | PE/PA (ratio of peak mitral flow velocities) [2]: 1.8 ± 0.10 | Stroke volume (SV) [2]: 19 ± 1.2 mL | Systemic vascular resistance (SVR) [2]: 4250 ± 327 dynes-sec-cm^−5 | Cardiac output (CO) [3]: 1.53 ± 0.08 L/min | Deceleration time of early mitral inflow velocity (DCT) [3]: 113 ± 6 ms | Ei/Ai (ratio of mitral inflow time-velocity integrals) [3]: 2.40 ± 0.29 | Heart rate (HR) [3]: 79 ± 3 beats/min | LV end-diastolic circumferential wall stress (EDWS) [3]: 47 ± 6 gm/cm^2 | LV end-diastolic pressure (LVEDP) [3]: 12 ± 1.1 mmHg | LV end-diastolic volume (EDV) [3]: 63 ± 2 mL | LV end-systolic volume (ESV) [3]: 44 ± 2 mL | LV fractional area of shortening (FAS) [3]: 29 ± 0.9 % | Mean aortic pressure (mAoP) [3]: 79 ± 3 mmHg | PE/PA (ratio of peak mitral flow velocities) [3]: 1.9 ± 0.07 | Stroke volume (SV) [3]: 19 ± 0.8 mL | Systemic vascular resistance (SVR) [3]: 4157 ± 212 dynes-sec-cm^−5 | Cardiac output (CO) [4]: 1.63 ± 0.05 L/min | Deceleration time of early mitral inflow velocity (DCT) [4]: 113 ± 5 ms | Ei/Ai (ratio of mitral inflow time-velocity integrals) [4]: 2.51 ± 0.21 | Heart rate (HR) [4]: 80 ± 3 beats/min | LV end-diastolic circumferential wall stress (EDWS) [4]: 44 ± 7 gm/cm^2 | LV end-diastolic pressure (LVEDP) [4]: 11 ± 1.2 mmHg | LV end-diastolic volume (EDV) [4]: 63 ± 2 mL | LV end-systolic volume (ESV) [4]: 42 ± 2 mL | LV fractional area of shortening (FAS) [4]: 31 ± 1.5 % | Mean aortic pressure (mAoP) [4]: 79 ± 3 mmHg | Myocardial oxygen consumption (MVO2) [4]: 114 ± 14 μmols/min | PE/PA (ratio of peak mitral flow velocities) [4]: 2.1 ± 0.09 | Stroke volume (SV) [4]: 21 ± 0.9 mL | Systemic vascular resistance (SVR) [4]: 3895 ± 168 dynes-sec-cm^−5 | Cardiac output (CO) [5]: 1.64 ± 0.07 L/min | Deceleration time of early mitral inflow velocity (DCT) [5]: 118 ± 6 ms | Ei/Ai (ratio of mitral inflow time-velocity integrals) [5]: 2.68 ± 0.23 | Heart rate (HR) [5]: 79 ± 4 beats/min | LV end-diastolic circumferential wall stress (EDWS) [5]: 43 ± 7 gm/cm^2 | LV end-diastolic pressure (LVEDP) [5]: 11 ± 1.2 mmHg | LV end-diastolic volume (EDV) [5]: 62 ± 2 mL | LV end-systolic volume (ESV) [5]: 41 ± 2 mL | LV fractional area of shortening (FAS) [5]: 31 ± 1.4 % | Mean aortic pressure (mAoP) [5]: 77 ± 2 mmHg | PE/PA (ratio of peak mitral flow velocities) [5]: 2.2 ± 0.05 | Stroke volume (SV) [5]: 21 ± 1.1 mL | Systemic vascular resistance (SVR) [5]: 3823 ± 221 dynes-sec-cm^−5 | Cardiac output (CO) [6]: 1.69 ± 0.04 L/min | Deceleration time of early mitral inflow velocity (DCT) [6]: 118 ± 4 ms | Ei/Ai (ratio of mitral inflow time-velocity integrals) [6]: 2.77 ± 0.23 | Heart rate (HR) [6]: 81 ± 4 beats/min | LV end-diastolic circumferential wall stress (EDWS) [6]: 41 ± 7 gm/cm^2 | LV end-diastolic pressure (LVEDP) [6]: 10 ± 1.2 mmHg | LV end-diastolic volume (EDV) [6]: 62 ± 2 mL | LV end-systolic volume (ESV) [6]: 41 ± 2 mL | LV fractional area of shortening (FAS) [6]: 32 ± 1.1 % | Mean aortic pressure (mAoP) [6]: 76 ± 3 mmHg | Myocardial oxygen consumption (MVO2) [6]: 115 ± 12 μmols/min | PE/PA (ratio of peak mitral flow velocities) [6]: 2.2 ± 0.06 | Slope of end-diastolic pressure-volume relation (EDPVR) [6]: 0.296 ± 0.018 mmHg/ml | Slope of end-systolic pressure volume relation (ESPVR) [6]: 2.43 ± 0.35 mmHg/ml | Stroke volume (SV) [6]: 21 ± 0.8 mL | Systemic vascular resistance (SVR) [6]: 3571 ± 113 dynes-sec-cm^−5 | Ventricular or atrial arrhythmias [7]: did not evoke any ventricular or atrial arrhythmias | Effect on DCT [8]: increased | Effect on EDWS [8]: decreased significantly | Effect on Ei/Ai [8]: increased significantly | Effect on PE/PA [8]: increased significantly | Effect on HR [9]: no effect | Effect on mAoP [9]: no effect | Effect on EF (LVEF) (HF dogs n=6, iv 10 μg/kg/min for 6 h, vs baseline, listed as GP-531 tartrate salt): increase | Effect on slope of the EDPVR (HF dogs n=6, iv 10 μg/kg/min, 6 hours, not statistically significant): tended to decrease | LV systolic and diastolic function (HF dogs, iv 10 μg/kg/min for 6 hours): can improve both LV systolic and diastolic function

NC(=O)c1ncn(C2OC(CNCc3ccccc3)C(O)C2O)c1N [GP-531, 5-amino-1-β-D-(5-benzylamino-5-deoxy-1-β-D-ribofuranosyl)imidazole-4 carboxamide]
Time after initiating drug infusion at which improvements (EDV, ESV, EF, FAS) occurred (HF dogs n=6, iv 10 μg/kg/min): 1 to 3 h | Acute decompensation [7]: None of the dogs treated with GP-531 developed acute decompensation | Changes in MVO2 [7]: absence of any changes | Death [7]: none died | Effect on peak +dP/dt [7]: no significant effects | Effect on peak −dP/dt [7]: no significant effects | Effect on LVEDP (HF dogs n=6, iv 10 μg/kg/min for 6 h, time-dependent, significance at 5 hours): significantly decreased | Effect on CO [9]: significant increase | Effect on EDV [9]: modest but statistically significant effect on reducing | Effect on EF (LVEF) [9]: increased | Effect on ESV [9]: significantly decreased | Effect on FAS [9]: increased | Effect on SV [9]: significant increase | Effect on SVR [9]: decrease | Effect on slope of the ESPVR (HF dogs n=6, iv 10 μg/kg/min, 6 h vs baseline): significantly increased
